Test [1] has as its system ACE2 and FURIN in lung tissue. Description: ACE2 staining and FURIN protein in bleomycin-injured lung. It counts as in vivo, C57BL/6J mice. The method, then: Bleomycin sulphate (Sigma-Aldrich) was dissolved in sterile 0.9% saline and administered as a single dose of 0.05 units in a total volume of 50 μl in saline solution per animal intratracheally (IT). Control animals received 0.05 mL saline alone. A preventative regimen was chosen and each animal received either Ro24-7429 drug 70 mg/kg or vehicle every other day 7 days before the induction of the model and continued until the end of the experiment for 1 week or 2 weeks. All animals received intratracheal instillations of either bleomycin on day 0 as previously described (52-55). A separate experiment was performed with similar drug-vehicle treatments and IT saline instillation for controls. The surgeon performing IT instillations was masked to the identity of the treatment groups. […]
Protein concentration was determined by Pierce Bicinchonic acid (BCA) protein assay kit (ThermoFisher; 23227) according to the manufacturer's instructions. […]
Additionally, we studied the effect of RUNX1 inhibition on the expression of ACE2 expression in TGF-β1 and TNF-α stimulated HPAEpi cells. […] FURIN protein levels were also observed to go down by 70% in the Ro24-7429 treated mice as evaluated by Western blot (FIGS. 4E-F).

In test [2] the test system is RUNX1 and fibrosis markers in lung tissue. Description: Expression of RUNX1 and fibrosis markers in bleomycin-injured lung (Western blot, qRT-PCR, immunostaining). The test is classed as in vivo, C57BL/6J mice. The method, then:
Bleomycin sulphate (Sigma-Aldrich) was dissolved in sterile 0.9% saline and administered as a single dose of 0.05 units in a total volume of 50 μl in saline solution per animal intratracheally (IT). Control animals received 0.05 mL saline alone. A preventative regimen was chosen and each animal received either Ro24-7429 drug 70 mg/kg or vehicle every other day 7 days before the induction of the model and continued until the end of the experiment for 1 week or 2 weeks. All animals received intratracheal instillations of either bleomycin on day 0 as previously described (52-55). A separate experiment was performed with similar drug-vehicle treatments and IT saline instillation for controls. The surgeon performing IT instillations was masked to the identity of the treatment groups.
Paraffin embedded sections were processed for immunofluorescence using the following antibodies: anti-RUNX1 (1:100; LS-B13948; Lifespan Biosciences, Seattle, WA), anti-human a-SMA antibody (1:200; NB500-170; Novus Biologicals, Ontario, Canada), anti-Iba1 antibody (1:100; ab5076; Abcam, Cambridge, United Kingdom), anti-Ly6g antibody (1:100; ab25377; Abcam, Cambridge, United Kingdom), and Isolectin GS-IB4 Alexa Fluoro 594 Conjugate (1:250; 121413; Invitrogen, Carlsbad, CA). For heat-induced antigen retrieval the slides were boiled in 10 mM sodium citrate buffer (pH 6.0) and then maintained at a sub-boiling temperature (95-100° C.) for 20 minutes and subsequently cooled on the bench top for 30 minutes. Slides were washed with distilled water and permeabilized with 0.5% Triton X-100 in PBS for 5 minutes and blocked (10% goat serum in PBS) for 1 hour at RT. The primary antibody was prepared in antibody dilution buffer (5% goat serum) and samples were incubated overnight with the antibody solution at 4° C. Sections were washed with PBS and incubated with goat anti-rabbit Alexa Fluor 594 secondary antibody (1:500; A-11012; Invitrogen, Carlsbad, CA) for 2 hours at room temperature. Slides were mounted and visualized using Prolong Gold Antifade Reagent with DAPI (P36935, Invitrogen). Images were obtained using an EVOS FL automated stage live cell imaging system (Life Technologies, Cambridge, MA).
Protein concentration was determined by Pierce Bicinchonic acid (BCA) protein assay kit (ThermoFisher; 23227) according to the manufacturer's instructions. 20 μg of total cell lysates were prepared in 4 μL 1M 1,4-dithiothreitol (DTT; Sigma Aldrich) and 10 μL Laemmli buffer (Boston Bioproducts) to a final volume of 40 μL and denatured 5 min at 90° C. Samples were separated electrophoretically for 1 h at 70 V using 4-20% pre-cast gradient gels (Mini-PROTEAN TGX, Bio-Rad) and SDS-Tris-Glycine buffer (Bio-rad). Proteins were transferred to 0.45 μm nitrocellulose membranes for 1 h at 70 V in ice cold […] Tris-Glycine buffer (Bio-rad). Membranes were blocked for 1 h with Odyssey Blocking Buffer (LI-COR Biosciences). Then incubated with primary antibodies for 3 hours RT or overnight at 4 degrees Celsius and then washed 3× with TBS-T and incubated with secondary antibodies IRDye 800CW donkey anti-mouse for 1 hour and washed 3× with TBS-T.
Mice were treated as described previously before euthanasia. Lung samples were collected for qRT-PCR analysis and tissues lysed by homogenization. RNA was extracted using RNeasy Mini Kits (QIAGEN), as per the manufacturer's instructions for tissue samples. Transcription into complementary DNA and analysis were performed as stated previously. Primers for selected genes (Table 1) were purchased from Integrated DNA Technologies (Coralville, IA, USA).
In general terms: In western blotting, separated proteins are transferred to a membrane and probed.

In the next test the test system is A549 cells. The experiment in a line: CyQUANT Direct Cell Proliferation Assay, A549. The test is classed as cell-based, human. The method, then:
Human type II alveolar epithelial cells (A549) were a generous gift from Dr. Lagares (Mass General Hospital). Cells were maintained in low glucose-DMEM containing 10% FBS, 2 mM L-glutamine, 100 U/ml penicillin and 100 μg/ml streptomycin at 37° C. in a humidified 5% C02 atmosphere. Confluent cultures of cells were pretreated with Ro24-7429 for 24 hours followed by stimulation with 5 ng/ml of TGF-β1.
(§1) We tested the effect of RUNX1 inhibition on the proliferation of a human alveolar basal epithelial cell line (A549), primary human-derived pulmonary alveolar epithelial cells (HPAEpi), and in human-derived primary culture lung fibroblasts (HLF). For specific analyses we used escalating doses of Ro24-7429 (50-200 μM), Ro5-3335 (150 μM), pirfenidone (500 μg/ml) and nintedanib (5 μM), the latter two are currently approved drugs for IPF.

The subject of test [3] is human lung fibroblasts (HLF). The experiment in a line: CyQUANT Direct Cell Proliferation Assay, HLF. It counts as cell-based. The following applies: 72 hours.
Excerpt: as §1, with “We conducted mechanistic studies in cell culture to examine the cellular and molecular mechanisms underlying the robust effects of RUNX1 inhibition in the protection against bleomycin-induced lung injury. We” for “We”

The mark [4] stands for this setting: bleomycin mice, lung tissue, day 14.

For the compound `CNC1=Nc2ccc(Cl)cc2C(c2ccc[nH]2)=NC1` [Ro24-7429, 3H-1,4-Benzodiazepin-2-amine, 7-chloro-N-methyl-5-(1H-pyrrol-2-yl)-], the “decrease of FURIN protein levels” value in test [1] (bleomycin mice lungs, Western blot) was found to be 70%. In addition, the “ACE2 staining in the lung” value in test [1] (bleomycin mouse model, 2-week time point, immunofluorescence) is recorded as “markedly reduced”. Besides, the α-SMA immunostaining localization entry in test [2] (70 mg/kg, bleomycin mice) is “localized only to vessels”. Moreover, the “expression of E-Cadherin, Western blot” value in test [2] (setting [4]) is recorded as “preserved”. The “expression of RUNX1, Western blot” value in test [2] (setting [4]) was “reduced”. Moreover, in test [2] (setting [4]), the “expression of fibronectin, Western blot” value is listed as “reduced”. For the same compound, in test [2] (bleomycin-injured mice, day 14), the “RUNX1 upregulation, immunofluorescence and qRT-PCR” value is “significantly attenuated”. Also, in test [2] (compared to vehicle treated mice, day 14), the “upregulation of fibrosis markers triggered by bleomycin” value was “blunted”. For the same compound, in the test with A549 cells (48 hours, Ro5-3335 150 μM, Ro24-7429 50 μM-200 μM, Pirfenidone 500 μg/ml, Nintedanib 5 μM), the “percent live cells compared to vehicle treated” value is given as “significant reduction”. Moreover, the reduction in proliferation is 62% with A549 cells (A549, 48 hours, 50 μM); 68% in the test on A549 cells (A549, 48 hours, 200 μM); 82% in the test on A549 cells (A549, 72 hours, 200 μM); 30% in test [3] (50 μM); 55% in test [3] (200 μM).

The values above are taken from patent publication US12673063B2, “Methods and materials for treatment of fibrosis” (Massachusetts Eye and Ear Infirmary, priority 2020, dated 2026).
